Source: patent US11690850B2, “Inhibitors of receptor interacting protein kinase I for the treatment of disease” (Board of Regents, The University of Texas System, priority 2019, dated 2023)
Values joined by “and” are separate entries in the source; they are usually repeats but may differ in a detail not shown here. Identical values can stand only once.

target: RIPK1 (Homo sapiens (Human), UniProt Q13546); assay: ADP-Glo Kinase Assay; format: biochemical; settings: 5 nM RIPK1 protein, 50 μM ATP, 6 hr reaction, average value across multiple runs
Sequence (Q13546 1-327): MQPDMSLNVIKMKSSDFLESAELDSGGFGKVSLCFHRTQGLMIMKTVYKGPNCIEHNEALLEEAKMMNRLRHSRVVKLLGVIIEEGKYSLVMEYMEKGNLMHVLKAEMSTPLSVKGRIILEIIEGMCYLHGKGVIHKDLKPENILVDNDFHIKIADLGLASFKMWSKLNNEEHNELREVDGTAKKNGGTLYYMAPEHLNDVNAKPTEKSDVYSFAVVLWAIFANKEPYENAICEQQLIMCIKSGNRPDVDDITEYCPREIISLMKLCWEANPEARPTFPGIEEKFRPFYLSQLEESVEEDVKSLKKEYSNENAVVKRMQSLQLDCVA
Procedure: In order to measure RIPK1 activity the ADP-Glo kinase assay (Promega, Catalog #V7002) was used to measure the conversion of ATP to ADP. This enzymatic assay was performed in a 384-well white, Optiplate (Perkin Elmer, Catalog #6007299) with assay buffer consisting of 50 mM HEPES pH 7.5 (Gibco, Catalog #15630-080), 50 mM NaCl (Teknova, Catalog #S0252), 30 mM MgCl2 (Ambion, Catalog #AM9530G), 1 mM DTT (Santa Cruz Biotechnology, Catalog #sc-29089), 0.05% BSA (Sigma, Catalog #A3059-50G) and 0.02% CHAPS (Sigma, Catalog #C5070-5G). Stock solutions of the test compounds were prepared in 100% DMSO (Sigma, Catalog #D2650) and serially diluted 1:3 using 100% DMSO. Compounds were additionally diluted 1:40 in assay buffer, and 2 μL/well were transferred to the assay plate. 4 μL/well (final concentration of 5 nM) of RIPK1 protein (SignalChem, Catalog #R07-11G-05) diluted in assay buffer and added to the assay plate followed by a 10 minute preincutation at room temperature. 4 μL/well of ATP (Promega, Catalog #V7002) (final concentration of 50 μM) diluted in assay buffer were then added to the assay plate followed by a 6 hr reaction time. Final concentrations of RIPK1 and ATP refer to a 10 μL volume. Luminescence was measured using a BioTek Synergy™ NEO plate reader. IC50 values were calculated using a four-parameter logistic curve fit using Genedata Screener software. Results are shown below in Table 4, where the average value across multiple runs is given.

Row | SMILES | IC50
1 | Cc1cc(=O)c(C(=O)Nc2cc(F)cc(F)c2)nn1-c1ccccc1 [Example 92, N-(3,5-difluorophenyl)-6-methyl-4-oxo-1-phenyl-1,4-dihydropyridazine-3-carboxamide] | 0.414 µM
2 | Cc1cc(=O)c(C(=O)Nc2cccc(F)c2)nn1-c1ccccc1 [Example 93, N-(3-fluorophenyl)-6-methyl-4-oxo-1-phenyl-1,4-dihydropyridazine-3-carboxamide] | 0.282 µM
3 | Cc1ccnc(NC(=O)c2nn(-c3ccccc3F)c(C)cc2=O)c1 [Example 94, 1-(2-fluorophenyl)-6-methyl-N-(4-methylpyridin-2-yl)-4-oxo-1,4-dihydropyridazine-3-carboxamide] | 6.35 µM
4 | Cc1cccc(NC(=O)c2nn(-c3ccccc3F)c(C)cc2=O)n1 [Example 95, 1-(2-fluorophenyl)-6-methyl-N-(6-methylpyridin-2-yl)-4-oxo-1,4-dihydropyridazine-3-carboxamide] | 3.94 µM
5 | Cc1cc(=O)c(C(=O)NC(C)C2CC2)nn1-c1ccccc1 (stereo not drawn) [Example 96, N-(1-cyclopropylethyl)-6-methyl-4-oxo-1-phenyl-1,4-dihydropyridazine-3-carboxamide] | 6.49 µM
6 | Cc1ccc(NC(=O)c2nn(-c3ccccc3)c(C)cc2=O)cc1 [Example 97, 6-methyl-4-oxo-1-phenyl-N-(p-tolyl)-1,4-dihydropyridazine-3-carboxamide] | 11.6 µM
7 | Cc1cc(=O)c(C(=O)NC(c2ccccc2)C2CC2)nn1-c1ccccc1 (stereo not drawn) [Example 98, N-(cyclopropyl(phenyl)methyl)-6-methyl-4-oxo-1-phenyl-1,4-dihydropyridazine-3-carboxamide] | 3.57 µM
8 | Cc1cccc(NC(=O)c2nn(-c3ccccc3)c(C)cc2=O)n1 [Example 99, 6-methyl-N-(6-methylpyridin-2-yl)-4-oxo-1-phenyl-1,4-dihydropyridazine-3-carboxamide] | 3.49 µM
9 | Cc1cc(=O)c(C(=O)Nc2ccc(Cl)cn2)nn1-c1ccccc1F [Example 100, N-(5-chloropyridin-2-yl)-1-(2-fluorophenyl)-6-methyl-4-oxo-1,4-dihydropyridazine-3-carboxamide] | 43.8 µM
10 | CCn1c(NC(=O)c2nn(-c3ccccc3)c(C)cc2=O)nc2ccccc21 [Example 101, N-(1-ethyl-1H-benzo[d]imidazol-2-yl)-6-methyl-4-oxo-1-phenyl-1,4-dihydropyridazine-3-carboxamide] | 4.64 µM
11 | Cc1cc(=O)c(C(=O)Nc2ccccn2)nn1-c1ccccc1Cl [Example 102, 1-(2-chlorophenyl)-6-methyl-4-oxo-N-(pyridin-2-yl)-1,4-dihydropyridazine-3-carboxamide] | 2.37 µM
12 | Cc1cc(=O)c(C(=O)Nc2ccccn2)nn1-c1ccc(Cl)cc1 [Example 103, 1-(4-chlorophenyl)-6-methyl-4-oxo-N-(pyridin-2-yl)-1,4-dihydropyridazine-3-carboxamide] | 5 µM
13 | Cc1cc(=O)c(C(=O)NCC2CCC2)nn1-c1ccccc1 [Example 104, N-(cyclobutylmethyl)-6-methyl-4-oxo-1-phenyl-1,4-dihydropyridazine-3-carboxamide] | 8.25 µM
14 | Cc1noc(C(C)NC(=O)c2nn(-c3ccccc3)c(C)cc2=O)n1 (stereo not drawn) [Example 105, 6-methyl-N-(1-(3-methyl-1,2,4-oxadiazol-5-yl)ethyl)-4-oxo-1-phenyl-1,4-dihydropyridazine-3-carboxamide] | 36.9 µM
15 | Cc1cc(=O)c(C(=O)Nc2ccccn2)nn1-c1ccccc1 [Example 106, 6-methyl-4-oxo-1-phenyl-N-(pyridin-2-yl)-1,4-dihydropyridazine-3-carboxamide] | 1.78 µM
16 | Cc1cccc(NC(=O)c2nn(-c3ccccc3F)c(C)cc2=O)c1 [Example 107, 1-(2-fluorophenyl)-6-methyl-4-oxo-N-(m-tolyl)-1,4-dihydropyridazine-3-carboxamide] | 20.2 µM
17 | Cc1cc(=O)c(C(=O)Nc2ccccc2F)nn1-c1ccccc1 [Example 108, N-(2-fluorophenyl)-6-methyl-4-oxo-1-phenyl-1,4-dihydropyridazine-3-carboxamide] | 28.7 µM
18 | Cc1cc(=O)c(C(=O)Nc2ccc(F)cc2)nn1-c1ccccc1 [Example 109, N-(4-fluorophenyl)-6-methyl-4-oxo-1-phenyl-1,4-dihydropyridazine-3-carboxamide] | 28.1 µM
19 | C#CCNC(=O)c1nn(-c2ccccc2)c(C)cc1=O [Example 110, 6-methyl-4-oxo-1-phenyl-N-(prop-2-yn-1-yl)-1,4-dihydropyridazine-3-carboxamide] | 1.59 µM
20 | Cc1cc(NC(=O)c2nn(-c3ccccc3)c(C)cc2=O)sn1 [Example 111, 6-methyl-N-(3-methylisothiazol-5-yl)-4-oxo-1-phenyl-1,4-dihydropyridazine-3-carboxamide] | 39.1 µM
21 | Cc1noc(C2CC2)c1NC(=O)c1nn(-c2ccccc2)c(C)cc1=O [Example 112, N-(5-cyclopropyl-3-methylisoxazol-4-yl)-6-methyl-4-oxo-1-phenyl-1,4-dihydropyridazine-3-carboxamide] | 0.791 µM
22 | Cc1cc(=O)c(C(=O)N2CCC(Oc3ccccn3)C2)nn1-c1ccccc1 (stereo not drawn) [Example 113, 6-methyl-1-phenyl-3-(3-(pyridin-2-yloxy)pyrrolidine-1-carbonyl)pyridazin-4(1H)-one] | 29.5 µM
23 | Cc1ccnc(NC(=O)c2nn(-c3ccccc3)c(C)cc2=O)c1 [Example 114, 6-methyl-N-(4-methylpyridin-2-yl)-4-oxo-1-phenyl-1,4-dihydropyridazine-3-carboxamide] | 5.6 µM and 7.5 µM
24 | Cc1cc(=O)c(C(=O)Nc2ccncc2)nn1-c1ccccc1 [Example 115, 6-methyl-4-oxo-1-phenyl-N-(pyridin-4-yl)-1,4-dihydropyridazine-3-carboxamide] | 2.92 µM and 3.47 µM
25 | Cc1cc(=O)c(C(=O)Nc2cnns2)nn1-c1ccccc1 [Example 116, 6-methyl-4-oxo-1-phenyl-N-(1,2,3-thiadiazol-5-yl)-1,4-dihydropyridazine-3-carboxamide] | 8.52 µM and 17.4 µM
26 | Cc1cc(=O)c(C(=O)Nc2c(C(C)C)cccc2C(C)C)nn1-c1ccccc1 [Example 117, N-(2,6-diisopropylphenyl)-6-methyl-4-oxo-1-phenyl-1,4-dihydropyridazine-3-carboxamide] | 1.19 µM

tested on: human monocytic cell line U937; assay: Human U937 Cellular Necroptosis Assay; format: cell-based; settings: U-937; U937 cells stimulated with 25 ng/mL human TNFalpha and 25 μM z-VAD-FMK, 22 hr, viability by Cell Titer-Glo 2.0; average value across multiple runs; read-out: hU937 IC50
Procedure: Human U937 Cellular Necroptosis Assay
The human monocytic cell line U937 (CRL-1593.2) was purchased from ATCC. The cells were routinely maintained in RPMI-1640 Medium (Gibco, Catalog #11875-093) supplemented with 10% heat inactivated fetal bovine serum (Gibco, Catalog #16140-071), 100 units/mL penicillin and 100 μg/mL streptomycin (Gibco, Catalog #15140-122), in a humidified incubator (37° C., 5% CO2). For the assay, cells were resuspended in RPMI-1640 phenol red free Media (Gibco, Catalog #11835-030) supplemented with 10% fetal bovine serum (Sigma, Catalog #F2442), 100 units/mL penicillin and 100 ug/mL streptomycin. Cells were stimulated with 25 ng/mL human TNFalpha (Cell Sciences, Catalog #CSI15659B) and 25 μM z-VAD-FMK (R&D Systems, Catalog #FMK001) followed by seeding 5000 cells per well in a volume of 40 μL to a white, CulturPlate-384 (Perkin Elmer, Catalog #6007680). Stock solutions of the test compounds were prepared in 100% DMSO (Sigma, Catalog #D2650) and serially diluted 1:3 using 100% DMSO. Compounds were additionally diluted 1:40 in assay medium, and 10 μL/well was transferred to the plate. Following the compound addition the plate was incubated at 37° C. and 5% CO2 for 22 hr. After 22 hr, viability was assessed with the addition of 20 μL of Cell Titer-Glo 2.0 (Promega, Catalog #G9243). The tissue culture plate was shaken on an orbital shaker at 300 RPM for 15 minutes at room temperature in the dark. Luminescence was measured using a PerkinElmer Envision™ plate reader. IC50 values were calculated using a four-parameter logistic curve fit using Genedata Screener software. Results are shown below in Table 5, where the average value across multiple runs is given.

Row | SMILES | IC50
27 | Cc1cc(=O)c(C(=O)N[C@H]2COc3cccnc3NC2=O)nn1-c1ccccc1 [Example 63, (S)-6-methyl-4-oxo-N-(4-oxo-2,3,4,5-tetrahydropyrido[3,2-b][1,4]oxazepin-3-yl)-1-phenyl-1,4-dihydropyridazine-3-carboxamide] | 479 nM
28 | Cc1cc(=O)c(C(=O)NC2CCc3ccccc3-n3ccnc32)nn1-c1ccccc1 (stereo not drawn) [Example 73, N-(5,6-dihydro-4H-benzo[f]imidazo[1,2-a]azepin-4-yl)-6-methyl-4-oxo-1-phenyl-1,4-dihydropyridazine-3-carboxamide] | 296 nM
29 | Cc1c(Cl)c(=O)c(C(=O)N[C@H]2COc3cccnc3N(C)C2=O)nn1-c1ccccc1 [Example 74, (S)-5-chloro-6-methyl-N-(5-methyl-4-oxo-2,3,4,5-tetrahydropyrido[3,2-b]-[1,4]oxazepin-3-yl)-4-oxo-1-phenyl-1,4-dihydropyridazine-3-carboxamide] | 58.2 nM
30 | Cc1ccc(-n2nc(C(=O)N[C@H]3COc4cccnc4N(C)C3=O)c(=O)cc2C)cc1F [Example 75, (S)-1-(3-fluoro-4-methylphenyl)-6-methyl-N-(5-methyl-4-oxo-2,3,4,5-tetrahydro-pyrido[3,2-b][1,4]oxazepin-3-yl)-4-oxo-1,4-dihydropyridazine-3-carboxamide] | 28.4 nM
